One test deals with T1, HDAC2 (Homo sapiens, UniProt Q92769).
T1 construct: host or cells: SH-SY5Y cells
T1 sequence (Q92769 whole entry): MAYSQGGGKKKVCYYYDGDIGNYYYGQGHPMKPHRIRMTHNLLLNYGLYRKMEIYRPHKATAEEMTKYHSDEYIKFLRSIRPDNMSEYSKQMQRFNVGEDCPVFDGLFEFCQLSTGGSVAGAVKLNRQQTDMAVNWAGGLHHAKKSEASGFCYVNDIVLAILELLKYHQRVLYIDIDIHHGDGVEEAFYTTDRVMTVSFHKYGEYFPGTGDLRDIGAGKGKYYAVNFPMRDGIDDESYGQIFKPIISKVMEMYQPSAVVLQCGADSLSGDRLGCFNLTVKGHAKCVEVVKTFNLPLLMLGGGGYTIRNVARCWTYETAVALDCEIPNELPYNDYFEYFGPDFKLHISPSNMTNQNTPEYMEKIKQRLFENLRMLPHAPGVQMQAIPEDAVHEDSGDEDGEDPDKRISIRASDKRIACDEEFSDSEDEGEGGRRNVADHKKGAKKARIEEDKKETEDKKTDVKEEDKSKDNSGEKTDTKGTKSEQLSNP
In words: HDAC2 enzymatic inhibition assay in SH-SY5Y cell lysate with an exogenous substrate (HDAC-Glo 2). It is filed as cell-based. Conditions: SH-SY5Y cells, HDAC-Glo 2; numeric values, Table 4. How it is done:
HDAC2 Enzymatic Inhibition Assay in SH-SY5Y Cell Lysate with an Exogenous Substrate
SH-SY5Y cells (Sigma) were cultured in Eagle's Modified Essential Medium supplemented with 10% fetal bovine serum and pen/strep. Twenty-four hours prior to compound dosing 20 uL of cells were plated in white 384 well plates at a density of 1,500 cells/well. Compounds were serially diluted in neat DMSO and then diluted 1:100 v/v into media without FBS and mixed. Media was removed from the plated cells and the diluted compounds in serum free media (1% v/v final DMSO) were added and incubated at 37.0 for five hours. Ten uL of HDAC-Glo 2 reagent with 0.1% Triton X-100 was then added, the plate was mixed and allowed to develop at room temperature for 100 minutes. Plates were then read with a Spectramax LMax luminometer employing a 0.4 s integration time. Dose response curves were constructed with normalized data where CI-994 at 100 uM was defined as 100% inhibition and DMSO alone as 0% inhibition.
In the table, “A” indicates a IC50 value of less than 0.5 μM; “B” a IC50 value from 0.5 μM to 1.0 μM; “C” a IC50 value of greater than 1.0 μM and less than or equal to 2.0 μM; and “D” indicates an IC50 value of greater than 2.0 μM. NT=Not Tested.
Broadly, the IC50 is the midpoint of a concentration-inhibition curve. Read a low IC50 as inhibition by little substance. Regarding `Nc1ccc(-c2ccc(F)cc2)nc1NC(=O)N1CCCC1` [Comparator A, reference compound], half-maximal inhibition (IC50) was put at 2.64 µM. The compound `Nc1ccc(-c2ccc(F)cc2)nc1NC(=O)N1CCC(F)(F)C1` [Comparator B, reference compound] gave an IC50 of 14 µM. For the compound `Nc1ccc(-c2ccc(F)cc2)nc1NC(=O)N1CCC(C(F)(F)F)C1` (stereo not drawn) [Comparator C, reference compound], the concentration for half-maximal inhibition (IC50) is 6.36 µM. On the same count and under the same terms, in the case of `COCC1CCN(C(=O)Nc2nc(-c3ccc(F)cc3)ccc2N)C1` (stereo not drawn) [Comparator E, reference compound] it was over 100 µM.

The same test, now with this note: SH-SY5Y cells, five hours incubation, HDAC-Glo 2 reagent; class symbols.
Regarding `Nc1ccc(-c2ccc(F)cc2F)nc1NC(=O)N1CC[C@@H](Oc2cccnc2)C1` [Compound 5], the IC50 is over 2 µM. Same read-out and setting: in the case of `Nc1ccc(-c2ccc(F)cc2F)nc1NC(=O)N1CC[C@H](Oc2cccnc2)C1` [Compound 6] it was over 2 µM; in that of `Cc1ccc(C2CCN(C(=O)Nc3nc(-c4ccc(F)cc4F)ccc3N)C2)cn1` (stereo not drawn) [Compound 11], over 2 µM; in that of `COCc1cccc(C2CCN(C(=O)Nc3nc(-c4ccc(F)cc4F)ccc3N)C2)n1` (stereo not drawn) [Compound 12], over 2 µM. `Cc1cc(C2CCN(C(=O)Nc3nc(-c4ccc(F)cc4F)ccc3N)C2)nc(C)n1` (stereo not drawn) [Compound 13] gave a half-inhibitory concentration (IC50) of over 2 µM. Regarding `Cc1nccc(C2CCN(C(=O)Nc3nc(-c4ccc(F)cc4F)ccc3N)C2)n1` (stereo not drawn) [Compound 15], the IC50 was over 2 µM. On the same count and under the same terms, as for `Cc1cc(C)nc(C2CCN(C(=O)Nc3nc(-c4ccc(F)cc4F)ccc3N)C2)n1` (stereo not drawn) [Compound 16], the figure is over 2 µM; as for `Cc1cncc(C2CCN(C(=O)Nc3nc(-c4ccc(F)cc4F)ccc3N)C2)n1` (stereo not drawn) [Compound 17], 1 to 2 µM. Regarding `Nc1ccc(-c2ccc(F)cc2F)nc1NC(=O)N1CCC(Oc2cccnn2)C1` (stereo not drawn) [Compound 22], the IC50 was over 2 µM. `Cc1ccnc(CC2CCN(C(=O)Nc3nc(-c4ccc(F)cc4F)ccc3N)C2)n1` (stereo not drawn) [Compound 27] returned an IC50 of 1 to 2 µM. Regarding `Cc1ccc(CC2CCN(C(=O)Nc3nc(-c4ccc(F)cc4F)ccc3N)C2)nn1` (stereo not drawn) [Compound 28], the half-maximal inhibitory concentration (IC50) was 1 to 2 µM.

The compound `Cc1cnc(C2CCN(C(=O)Nc3nc(-c4ccc(F)cc4F)ccc3N)C2)s1` (stereo not drawn) [Compound 30] gave an IC50 of over 2 µM. Compound `Nc1ccc(-c2ccc(F)cc2F)nc1NC(=O)N1CCC(Cc2cccnc2)C1` (stereo not drawn) [Compound 31] had a half-maximal inhibitory concentration (IC50) of over 2 µM. Compound `Cc1nnc(C2CCN(C(=O)Nc3nc(-c4ccc(F)cc4F)ccc3N)C2)s1` (stereo not drawn) [Compound 32] came in with an IC50 of 1 to 2 µM. `Cc1cnc(C2CCN(C(=O)Nc3nc(-c4ccc(F)cc4F)ccc3N)C2)nc1` (stereo not drawn) [Compound 33] showed an IC50 of over 2 µM. `Nc1ccc(-c2ccc(F)cc2F)nc1NC(=O)N1CCC(Cn2ccnc2)C1` (stereo not drawn) [Compound 34] yielded an IC50 of over 2 µM. For the compound `Nc1ccc(-c2ccc(F)cc2F)nc1NC(=O)N1CCC(Cn2cccn2)C1` (stereo not drawn) [Compound 35], the 50% inhibitory concentration (IC50) was over 2 µM. For the compound `Nc1ccc(-c2ccc(F)cc2F)nc1NC(=O)N1CCC(c2cnc(C(F)F)cn2)C1` (stereo not drawn) [Compound 37], the concentration for half-maximal inhibition (IC50) is over 2 µM. As for `Nc1ccc(-c2ccc(Cl)s2)nc1NC(=O)N1CCC(c2ncccn2)C1` (stereo not drawn) [Compound 42], the IC50 was over 2 µM.

The compound `Cc1cnc(CC2CCN(C(=O)Nc3nc(-c4ccc(F)cc4F)ccc3N)C2)o1` (stereo not drawn) [Compound 47] gave an IC50 of over 2 µM.

The values above are taken from US20210276978A1, “INHIBITORS OF HISTONE DEACETYLASE” (Alkermes, Inc., priority 2018, published 2021).
